SMILES strings stand for the structures.

This assay deals with T1, TrkA (Homo sapiens, UniProt P04629).
T1 construct: aa 441-796; His; purchased Invitrogen PV3144
T1 sequence (P04629 441-796): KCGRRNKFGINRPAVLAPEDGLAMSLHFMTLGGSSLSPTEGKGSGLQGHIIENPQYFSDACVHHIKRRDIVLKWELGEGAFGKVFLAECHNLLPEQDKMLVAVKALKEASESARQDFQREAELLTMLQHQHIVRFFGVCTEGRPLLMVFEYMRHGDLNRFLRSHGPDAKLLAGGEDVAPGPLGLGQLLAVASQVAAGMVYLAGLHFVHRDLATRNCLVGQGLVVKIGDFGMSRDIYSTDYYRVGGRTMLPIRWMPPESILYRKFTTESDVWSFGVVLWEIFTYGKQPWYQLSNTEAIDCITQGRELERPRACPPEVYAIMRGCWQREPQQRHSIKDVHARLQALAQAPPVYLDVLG
The assay can be described thus: Isolated TRK enzyme assay (HTRF KinEASE-TK kit), PV3144 TrkA enzyme assay. Type of assay: biochemical. Particulars: PV3144 TrkA enzyme assay, recombinant His-tagged cytoplasmic domain aa 441-796, 4 nM enzyme, 40 uM ATP; arithmetic mean where more than one reading; read-out: Trka enzyme (IC50). A digest of the protocol:
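Recombinant His-tagged cytoplasmic domain of human TrkA, preactivated with ATP for 20 min, then 20 min with compound before biotinylated TK substrate (1 uM final) at room temperature. HTRF read at 665/620 nm; % inhibition normalised to reference-compound and DMSO controls, IC50 from sigmoid fit, mean of replicates.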
Usually IC50 stands for the concentration that inhibits the measured activity by half. As for `CC(C)(CO)n1cc(C(=O)c2cc(NC(=O)Cn3ccc(C(F)(F)F)n3)ccn2)c2cncnc21` [Example 59, N-(2-{[7-(1-hydroxy-2-methylpropan-2-yl)-7H-pyrrolo[2,3-d]pyrimidin-5-yl]carbonyl}pyridin-4-yl)-2-[3-(trifluoromethyl)-1H-pyrazol-1-yl]acetamide], the IC50 was 12.3 nM.

For `Cc1cc(C(F)(F)F)nn1CC(=O)Nc1ccnc(C(=O)c2cn(C(C)(C)CO)c3ncncc23)c1` [Example 60, N-(2-{[7-(1-hydroxy-2-methylpropan-2-yl)-7H-pyrrolo[2,3-d]pyrimidin-5-yl]carbonyl}pyridin-4-yl)-2-[5-methyl-3-(trifluoromethyl)-1H-pyrazol-1-yl]acetamide], the IC50 amounted to 8.3 nM.

For the compound `CC(C)(CO)n1cc(C(=O)c2cc(NC(=O)Cn3ccc(C4CC4)n3)ccn2)c2cncnc21` [Example 61, 2-(3-cyclopropyl-1H-pyrazol-1-yl)-N-(2-{[7-(1-hydroxy-2-methylpropan-2-yl)-7H-pyrrolo[2,3-d]pyrimidin-5-yl]carbonyl}pyridin-4-yl)acetamide], the IC50 is 25.4 nM.

With `CC(C)n1cc(C(=O)c2ccnc(NC(=O)Cc3ccc(C#N)cn3)c2)c2cncnc21` [Example 62, 2-(5-Cyanopyridin-2-yl)-N-{4-[(7-isopropyl-7H-pyrrolo[2,3-d]pyrimidin-5-yl)carbonyl}pyridin-2-yl]acetamide], the IC50 is 34.3 nM.

`CC(C)n1cc(C(=O)c2cc(NC(=O)Cc3ccc(C#N)cn3)ccn2)c2cnc(N)nc21` [Example 63, N-(2-{[2-amino-7-(propan-2-yl)-7H-pyrrolo[2,3-d]pyrimidin-5-yl]carbonyl}pyridin-4-yl)-2-(5-cyanopyridin-2-yl)acetamide]: the IC50 stood at 136 nM.

For `CC(C)n1cc(C(=O)c2cc(NC(=O)Cc3ccc(Cl)cc3)ncn2)c2cncnc21` [Example 65, 2-(4-chlorophenyl)-N-(6-{[7-(propan-2-yl)-7H-pyrrolo[2,3-d]pyrimidin-5-yl]carbonyl}pyrimidin-4-yl)acetamide], the IC50 was 23.4 nM.

Take `CC(C)n1cc(C(=O)c2ccnc(NC(=O)Cc3ccc(Cl)c(Cl)c3)c2)c2cncnc21` [Example 66, 2-(3,4-Dichlorophenyl)-N-{4-[(7-isopropyl-7H-pyrrolo[2,3-d]pyrimidin-5-yl)carbonyl]pyridin-2-yl}acetamide]: the half-inhibitory concentration (IC50) was found to be 4.45 nM.

Regarding `CC(C)n1cc(C(=O)c2ccnc(NC(=O)Cc3ccc(Cl)cc3)c2)c2cncnc21` [Example 67, 2-(4-chlorophenyl)-N-(4-{[7-(propan-2-yl)-7H-pyrrolo[2,3-d]pyrimidin-5-yl]carbonyl}pyridin-2-yl)acetamide], the IC50 is 28.9 nM.

Turning to `CC(C)n1cc(C(=O)c2ccnc(NC(=O)Cc3ccc(C#N)cc3)c2)c2cncnc21` [Example 68, 2-(4-cyanophenyl)-N-(4-{[7-(propan-2-yl)-7H-pyrrolo[2,3-d]pyrimidin-5-yl]carbonyl}pyridin-2-yl)acetamide], the IC50 came out at 51 nM.

`Cc1cc(C(F)(F)F)nn1CC(=O)Nc1ccnc(C(=O)c2cn(C(C)C)c3ncncc23)c1` [Example 69, 2-[5-methyl-3-(trifluoromethyl)-1H-pyrazol-1-yl]-N-(2-{[7-(propan-2-yl)-7H-pyrrolo[2,3-d]pyrimidin-5-yl]carbonyl}pyridin-4-yl)acetamide]: the 50% inhibitory concentration (IC50) was determined as 5.54 nM.

`Cc1ccn(CC(=O)Nc2cc(C(=O)c3cn(C(C)C)c4ncncc34)ccn2)n1` [Example 70, 2-(3-methyl-1H-pyrazol-1-yl)-N-(4-{[7-(propan-2-yl)-7H-pyrrolo[2,3-d]pyrimidin-5-yl]carbonyl}pyridin-2-yl)acetamide]: the IC50 stood at 144 nM.

For `CC(C)n1cc(C(=O)c2ccnc(NC(=O)Cc3ccc(C#N)c(C(F)(F)F)c3)c2)c2cncnc21` [Example 71, 2-[4-cyano-3-(trifluoromethyl)phenyl]-N-(4-{[7-(propan-2-yl)-7H-pyrrolo[2,3-d]pyrimidin-5-yl]carbonyl}pyridin-2-yl)acetamide], the IC50 amounted to 49.2 nM.

Take `CC(C)n1cc(C(=O)c2ccnc(NC(=O)Cc3ccc(OC4CC4)cc3)c2)c2cncnc21` [Example 72, 2-[4-(cyclopropyloxy)phenyl]-N-(4-{[7-(propan-2-yl)-7H-pyrrolo[2,3-d]pyrimidin-5-yl]carbonyl}pyridin-2-yl)acetamide]: the IC50 stood at 117 nM.

On to `CC(C)n1cc(C(=O)c2ccnc(NC(=O)Cc3ccc(F)cn3)c2)c2cncnc21` [Example 73, 2-(5-fluoropyridin-2-yl)-N-(4-{[7-(propan-2-yl)-7H-pyrrolo[2,3-d]pyrimidin-5-yl]carbonyl}pyridin-2-yl)acetamide], for which the IC50 was determined as 58.2 nM.

`CC(C)n1cc(C(=O)c2ccnc(NC(=O)Cc3ccc(Cl)cn3)c2)c2cncnc21` [Example 74, 2-(5-chloropyridin-2-yl)-N-(4-{[7-(propan-2-yl)-7H-pyrrolo[2,3-d]pyrimidin-5-yl]carbonyl}pyridin-2-yl)acetamide]: the half-maximal inhibitory concentration (IC50) is 20.9 nM.

`Cc1cc(C(=O)c2cn(C(C)C)c3ncncc23)cc(NC(=O)Cc2ccccc2)n1` [Example 75, N-(6-methyl-4-{[7-(propan-2-yl)-7H-pyrrolo[2,3-d]pyrimidin-5-yl]carbonyl}pyridin-2-yl)-2-phenylacetamide]: the IC50 amounted to 306 nM.

`Cc1cc(C(=O)c2cn(C(C)C)c3ncncc23)cc(NC(=O)Cc2ccc(C#N)cc2)n1` [Example 76, 2-(4-cyanophenyl)-N-(6-methyl-4-{[7-(propan-2-yl)-7H-pyrrolo[2,3-d]pyrimidin-5-yl]carbonyl}pyridin-2-yl)acetamide]: the IC50 came out at 315 nM.

As to `Cc1cc(C(=O)c2cn(C(C)C)c3ncncc23)cc(NC(=O)Cc2ccc(F)cc2)n1` [Example 77, 2-(4-fluorophenyl)-N-(6-methyl-4-{[7-(propan-2-yl)-7H-pyrrolo[2,3-d]pyrimidin-5-yl]carbonyl}pyridin-2-yl)acetamide], the IC50 turned out to be 226 nM.

`Cc1cc(C(=O)c2cn(C(C)C)c3ncncc23)cc(NC(=O)Cc2ccc(C#N)c(C(F)(F)F)c2)n1` [Example 78, 2-[4-cyano-3-(trifluoromethyl)phenyl]-N-(6-methyl-4-{[7-(propan-2-yl)-7H-pyrrolo[2,3-d]pyrimidin-5-yl]carbonyl}pyridin-2-yl)acetamide]: the IC50 was found to be 118 nM.

In the case of `CC(C)n1cc(C(=O)c2cc(NC(=O)Cn3cc(C(F)(F)F)nn3)ccn2)c2cncnc21` [Example 79, N-(2-{[7-(propan-2-yl)-7H-pyrrolo[2,3-d]pyrimidin-5-yl]carbonyl}pyridin-4-yl)-2-[4-(trifluoromethyl)-1H-1,2,3-triazol-1-yl]acetamide], the IC50 is 131 nM.

In the case of `CC(C)n1cc(C(=O)c2cc(NC(=O)Cc3cccc(S(C)(=O)=O)c3)ccn2)c2cncnc21` [Example 81, 2-[3-(methylsulfonyl)phenyl]-N-(2-{[7-(propan-2-yl)-7H-pyrrolo[2,3-d]pyrimidin-5-yl]carbonyl}pyridin-4-yl)acetamide], the IC50 came to 268 nM.

On to `CC(C)n1cc(C(=O)c2cc(NC(=O)Cn3cc(C4CC4)nn3)ccn2)c2cncnc21` [Example 82, 2-(4-cyclopropyl-1H-1,2,3-triazol-1-yl)-N-(2-{[7-(propan-2-yl)-7H-pyrrolo[2,3-d]pyrimidin-5-yl]carbonyl}pyridin-4-yl)acetamide], for which the IC50 turned out to be 76.1 nM.

Turning to `CC(C)n1cc(C(=O)c2cc(NC(=O)Cn3ccc(C4CC4)n3)ccn2)c2cncnc21` [Example 83, 2-(3-cyclopropyl-1H-pyrazol-1-yl)-N-(2-{[7-(propan-2-yl)-7H-pyrrolo[2,3-d]pyrimidin-5-yl]carbonyl}pyridin-4-yl)acetamide], the IC50 was determined as 10.2 nM.

Consider `Cc1cc(C(F)(F)F)nn1CC(=O)Nc1ccnc(C(=O)c2cn(C(C)C)c3nc(N)ncc23)c1` [Example 84, N-(2-{[2-amino-7-(propan-2-yl)-7H-pyrrolo[2,3-d]pyrimidin-5-yl]carbonyl}pyridin-4-yl)-2-[5-methyl-3-(trifluoromethyl)-1H-pyrazol-1-yl]acetamide], for which the half-inhibitory concentration (IC50) was 27.1 nM.

Regarding `CC(C)n1cc(C(=O)c2cc(NC(=O)Cn3ccc(C(F)(F)F)n3)ccn2)c2cnc(N)nc21` [Example 85, N-(2-{[2-amino-7-(propan-2-yl)-7H-pyrrolo[2,3-d]pyrimidin-5-yl]carbonyl}pyridin-4-yl)-2-[3-(trifluoromethyl)-1H-pyrazol-1-yl]acetamide], the IC50 was 54.1 nM.

`CC(C)n1cc(C(=O)c2cc(NC(=O)Cc3ccc(Cl)cn3)ccn2)c2cnc(N)nc21` [Example 86]: the concentration for half-maximal inhibition (IC50) was determined as 35 nM.

Turning to `CC(C)n1cc(C(=O)c2cc(NC(=O)Cc3ccc(Cl)cc3)ccn2)c2cnc(N)nc21` [Example 87, N-(2-{[2-amino-7-(propan-2-yl)-7H-pyrrolo[2,3-d]pyrimidin-5-yl]carbonyl}pyridin-4-yl)-2-(4-chlorophenyl)acetamide], the IC50 came to 6.43 nM.

As for `CC(C)n1cc(C(=O)c2cc(NC(=O)Cc3cccc(S(C)(=O)=O)c3)ccn2)c2cnc(N)nc21` [Example 88, N-(2-{[2-amino-7-(propan-2-yl)-7H-pyrrolo[2,3-d]pyrimidin-5-yl]carbonyl}pyridin-4-yl)-2-[3-(methylsulfonyl)phenyl]acetamide], the IC50 stood at 75.9 nM.

Regarding `CC(C)n1cc(C(=O)c2cc(NC(=O)Cc3ccc(F)cn3)ccn2)c2cnc(N)nc21` [Example 89, N-(2-{[2-amino-7-(propan-2-yl)-7H-pyrrolo[2,3-d]pyrimidin-5-yl]carbonyl}pyridin-4-yl)-2-(5-fluoropyridin-2-yl)acetamide], the IC50 amounted to 76.3 nM.

In the case of `CC(C)n1cc(C(=O)c2cc(NC(=O)Cn3cc(C(F)(F)F)nn3)ccn2)c2cnc(N)nc21` [Example 90, N-(2-{[2-amino-7-(propan-2-yl)-7H-pyrrolo[2,3-d]pyrimidin-5-yl]carbonyl}pyridin-4-yl)-2-[4-(trifluoromethyl)-1H-1,2,3-triazol-1-yl]acetamide], the IC50 worked out at 18.5 nM.

The values are drawn from patent publication US20150218172A1, “Pyrrolo[2,3-D]Pyrimidine Tropomyosin-Related Kinase Inhibitors” (PFIZER LIMITED, priority 2012, published 2015).
